In general, IC50 refers to the concentration that inhibits the measured activity by half. One may read the viability, T/C as the result in the treated group divided by that in the control group, in per cent.

Several values for one entry are separate records, joined by “and”; a condition that tells them apart may be missing. Equal entries are not always repeated.

These results are taken from PubChem BioAssay AID1963979 (Molecular Pharmacology Branch, DTP, NCI, 2024).

The test concerns 361931-004-R-J1-PDC multicell spheroid viability. The test is described as follows: Anticancer human tumor 361931-004-R-J1-PDC patient-derived colon adenocarcinoma cell line growth inhibition [PI3K]. As to conditions: for viability, T/C: stronger effect = lower value. In short, it runs like this: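 Complex 3D spheroids (cancer cells + endothelial HUVEC + mesenchymal stem cells); drug pairs of targeted agent x inavolisib/alpelisib/duvelisib/copanlisib; half-log series from ~Cmax, max 10 microM if Cmax unknown; endpoint viability.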

Setting [1] is: curve of first compound, second compound 0.00316 µM.
The mark [2] stands for this setting: curve of first compound, second compound 0.01 µM.
The mark [3] stands for this setting: curve of first compound, second compound 0.0316 µM.
Where [4] appears, read: curve of first compound, second compound 0.1 µM.
Setting [5] is: curve of first compound, second compound 0.316 µM.
The mark [6] stands for this setting: curve of first compound, second compound 1 µM.
Where [7] appears, read: second compound 0.00316 µM, first compound 0.0316 µM.
[8] abbreviates: second compound 0.00316 µM, first compound 0.1 µM.
Setting [9] is: second compound 0.00316 µM, first compound 0.316 µM.
The mark [10] stands for this setting: second compound 0.00316 µM, first compound 1 µM.
The mark [11] stands for this setting: second compound 0.01 µM, first compound 0.0316 µM.
Setting [12] is: second compound 0.01 µM, first compound 0.1 µM.
[13] abbreviates: second compound 0.01 µM, first compound 0.316 µM.
The mark [14] stands for this setting: second compound 0.01 µM, first compound 1 µM.
Setting [15] is: second compound 0.0316 µM, first compound 0.0316 µM.
The mark [16] stands for this setting: second compound 0.0316 µM, first compound 0.1 µM.
Setting [17] is: second compound 0.0316 µM, first compound 0.316 µM.
The mark [18] stands for this setting: second compound 0.0316 µM, first compound 1 µM.
Setting [19] is: second compound 0.1 µM, first compound 0.0316 µM.
Setting [20] is: second compound 0.1 µM, first compound 0.1 µM.
The mark [21] stands for this setting: second compound 0.1 µM, first compound 0.316 µM.
[22] abbreviates: second compound 0.1 µM, first compound 1 µM.
Where [23] appears, read: second compound 0.316 µM, first compound 0.0316 µM.
Where [24] appears, read: second compound 0.316 µM, first compound 0.1 µM.
[25] abbreviates: second compound 0.316 µM, first compound 0.316 µM.
Setting [26] is: second compound 0.316 µM, first compound 1 µM.
The mark [27] stands for this setting: second compound 1 µM, first compound 0.0316 µM.
Setting [28] is: second compound 1 µM, first compound 0.1 µM.
Setting [29] is: second compound 1 µM, first compound 0.316 µM.
[30] abbreviates: second compound 1 µM, first compound 1 µM.
Setting [31] is: compound alone, run of 05/08/2023.
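Further: spheroids exposed to agents for seven days before readout.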

On to `CCN1CCN(Cc2ccc(Nc3ncc(F)c(-c4cc(F)c5nc(C)n(C(C)C)c5c4)n3)nc2)CC1` + CC(Nc1ccc2c(c1)OCCn1cc(N3C(=O)OCC3C(F)F)nc1-2)C(N)=O, for which the 50% inhibitory concentration (IC50) is > 1000 nM under setting [1]; > 1000 nM under setting [2]; > 1000 nM under setting [3]; 504 nM under setting [4]; 142 nM under setting [5]; 146 nM under setting [6]. Moreover, the viability, T/C is, setting by setting: (second compound 0.00316 µM, first compound 0.00316 µM) 96.2%; (second compound 0.00316 µM, first compound 0.01 µM) 100%; under setting [7], 91.2%; under setting [8], 86.9%; under setting [9], 86.2%; under setting [10], 64.3%. Besides, the viability, T/C (second compound 0.01 µM, first compound 0.00316 µM) was 104%; the viability, T/C (second compound 0.01 µM, first compound 0.01 µM) was 99.1%; the viability, T/C under setting [11] was 77.5%; the viability, T/C under setting [12] was 81.4%; the viability, T/C under setting [13] is 86.1%; the viability, T/C under setting [14] was 56.7%. Moreover, the viability, T/C (second compound 0.0316 µM, first compound 0.00316 µM) is 91.4%; the viability, T/C (second compound 0.0316 µM, first compound 0.01 µM) is 98.2%; the viability, T/C under setting [15] was 76.2%; the viability, T/C under setting [16] was 80%; the viability, T/C under setting [17] is 68%; the viability, T/C under setting [18] was 55.4%. For the same compound, the viability, T/C is, setting by setting: (second compound 0.1 µM, first compound 0.00316 µM) 90%; (second compound 0.1 µM, first compound 0.01 µM) 87.6%; under setting [19], 71.7%; under setting [20], 63.4%; under setting [21], 67.2%; under setting [22], 36.4%. In addition, the viability, T/C by setting is: (second compound 0.316 µM, first compound 0.00316 µM) 75.7%; (second compound 0.316 µM, first compound 0.01 µM) 86.4%; under setting [23], 62.8%; under setting [24], 55%; under setting [25], 42.5%; under setting [26], 33.1%. Moreover, the viability, T/C runs as follows: (second compound 1 µM, first compound 0.00316 µM) 75.4%; (second compound 1 µM, first compound 0.01 µM) 75.1%; under setting [27], 54.4%; under setting [28], 56.1%; under setting [29], 45%; under setting [30], 32.2%.

With `CC(Nc1ccc2c(c1)OCCn1cc(N3C(=O)OCC3C(F)F)nc1-2)C(N)=O` (centres undefined), the viability, T/C is, setting by setting: (compound 0.00316 µM) 98.9% [middle of 8 runs]; (compound 0.01 µM) 97.8% [middle of 8 runs]; (compound 0.0316 µM) 98.1% [middle of 8 runs]; (compound 0.1 µM) 94.3% [middle of 8 runs]; (compound 0.316 µM) 92.9% [middle of 8 runs]; (compound 1 µM) 88.1% [middle of 8 runs]. Further, the IC50 under setting [31] is > 1000 nM.

`CC(C)n1nc(-c2ccc3oc(N)nc3c2)c2c(N)ncnc21`: the viability, T/C (compound 0.000316 µM) was 99.8% [middle of 4 runs]; the viability, T/C (compound 0.001 µM) is 102% [middle of 4 runs]; the viability, T/C (compound 0.00316 µM) was 108% and 100% (2×) and 104%; the viability, T/C (compound 0.01 µM) was 108% and 100% (2×) and 101%; the viability, T/C (compound 0.0316 µM) was 99.3% [middle of 4 runs]; the viability, T/C (compound 0.1 µM) is 76% [middle of 4 runs]. Further, the IC50 (curve of compound) was > 100 nM.

For the compound `C=CC(=O)N1CCN(c2nc(=O)n(-c3c(C)ccnc3C(C)C)c3nc(-c4c(O)cccc4F)c(F)cc23)C(C)C1` (centres undefined) + COc1c(OCCCN2CCOCC2)ccc2c3n(c(=NC(=O)c4cnc(N)nc4)nc12)CCN3, the half-maximal inhibitory concentration (IC50) is > 10000 nM under setting [1]; > 10000 nM under setting [2]; > 10000 nM under setting [3]; > 10000 nM under setting [4]; 31.6 nM under setting [5]; < 31.6 nM under setting [6]. Further, the viability, T/C was 97.7% under setting [7]; 100% under setting [8]; 100% under setting [9]; 98.7% under setting [10]; 99.9% (second compound 0.00316 µM, first compound 3.16 µM); 90.1% (second compound 0.00316 µM, first compound 10 µM). In addition, the viability, T/C runs as follows: under setting [11], 98%; under setting [12], 95%; under setting [13], 92.6%; under setting [14], 94.4%; (second compound 0.01 µM, first compound 3.16 µM) 103%; (second compound 0.01 µM, first compound 10 µM) 89%. Also, the viability, T/C runs as follows: under setting [15], 94.6%; under setting [16], 89.5%; under setting [17], 90.6%; under setting [18], 94.7%; (second compound 0.0316 µM, first compound 3.16 µM) 91.6%; (second compound 0.0316 µM, first compound 10 µM) 82.4%. Further, the viability, T/C is 83.8% under setting [19]; 80.3% under setting [20]; 77.8% under setting [21]; 76% under setting [22]; 78.8% (second compound 0.1 µM, first compound 3.16 µM); 54.9% (second compound 0.1 µM, first compound 10 µM). In addition, the viability, T/C is, setting by setting: under setting [23], 48.7%; under setting [24], 49.8%; under setting [25], 47.1%; under setting [26], 39.5%; (second compound 0.316 µM, first compound 3.16 µM) 51.1%; (second compound 0.316 µM, first compound 10 µM) 32.8%. Also, the viability, T/C is 20.4% under setting [27]; 22.1% under setting [28]; 15.4% under setting [29]; 20.2% under setting [30]; 18.3% (second compound 1 µM, first compound 3.16 µM); 12.4% (second compound 1 µM, first compound 10 µM).

With `Cc1nc(NC(=O)N2CCCC2C(N)=O)sc1-c1ccnc(C(C)(C)C(F)(F)F)c1` (centres undefined), the viability, T/C was 101% [middle of 8 runs] (compound 0.0316 µM); 97.9% [middle of 8 runs] (compound 0.316 µM); 91.2% [middle of 8 runs] (compound 1 µM); 87.2% [middle of 8 runs] (compound 3.16 µM); 73.8% [middle of 8 runs] (compound 10 µM). Besides, under setting [31], the 50% inhibitory concentration (IC50) was > 10000 nM.
